Assay [1] deals with Serine/threonine-protein kinase PAK 2 (Homo sapiens, UniProt Q13177).
For assay [2], the target named is Serine/threonine-protein kinase 16 (Homo sapiens, UniProt O75716).
In assay [3] the target is Tyrosine-protein kinase ABL1 (Homo sapiens, UniProt P00519, H396P).
The target of assay [4] is Phosphatidylinositol 4,5-bisphosphate 3-kinase catalytic subunit alpha isoform (Homo sapiens, UniProt P42336, E545K).
Assay [5] has as its target Activin receptor type-1-like (Homo sapiens, UniProt P37023).
Assay [6] deals with T1, Myosin light chain kinase family member 4 (Homo sapiens, UniProt Q86YV6).
T1 sequence (Q86YV6 whole entry): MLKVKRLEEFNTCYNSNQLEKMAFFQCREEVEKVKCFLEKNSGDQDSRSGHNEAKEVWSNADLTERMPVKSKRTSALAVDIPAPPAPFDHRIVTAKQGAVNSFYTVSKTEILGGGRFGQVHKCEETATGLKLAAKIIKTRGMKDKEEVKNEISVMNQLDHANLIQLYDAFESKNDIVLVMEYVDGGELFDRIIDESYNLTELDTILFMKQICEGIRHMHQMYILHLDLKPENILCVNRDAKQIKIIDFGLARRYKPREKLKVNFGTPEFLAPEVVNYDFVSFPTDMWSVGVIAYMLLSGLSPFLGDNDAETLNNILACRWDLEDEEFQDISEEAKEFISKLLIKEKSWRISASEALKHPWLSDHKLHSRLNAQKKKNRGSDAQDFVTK

The target in assay [7] is Tyrosine-protein kinase ABL1 (Homo sapiens, UniProt P00519).
For assay [8], the target named is T2, Ephrin type-B receptor 1 (Homo sapiens, UniProt P54762).
T2 sequence (P54762 whole entry): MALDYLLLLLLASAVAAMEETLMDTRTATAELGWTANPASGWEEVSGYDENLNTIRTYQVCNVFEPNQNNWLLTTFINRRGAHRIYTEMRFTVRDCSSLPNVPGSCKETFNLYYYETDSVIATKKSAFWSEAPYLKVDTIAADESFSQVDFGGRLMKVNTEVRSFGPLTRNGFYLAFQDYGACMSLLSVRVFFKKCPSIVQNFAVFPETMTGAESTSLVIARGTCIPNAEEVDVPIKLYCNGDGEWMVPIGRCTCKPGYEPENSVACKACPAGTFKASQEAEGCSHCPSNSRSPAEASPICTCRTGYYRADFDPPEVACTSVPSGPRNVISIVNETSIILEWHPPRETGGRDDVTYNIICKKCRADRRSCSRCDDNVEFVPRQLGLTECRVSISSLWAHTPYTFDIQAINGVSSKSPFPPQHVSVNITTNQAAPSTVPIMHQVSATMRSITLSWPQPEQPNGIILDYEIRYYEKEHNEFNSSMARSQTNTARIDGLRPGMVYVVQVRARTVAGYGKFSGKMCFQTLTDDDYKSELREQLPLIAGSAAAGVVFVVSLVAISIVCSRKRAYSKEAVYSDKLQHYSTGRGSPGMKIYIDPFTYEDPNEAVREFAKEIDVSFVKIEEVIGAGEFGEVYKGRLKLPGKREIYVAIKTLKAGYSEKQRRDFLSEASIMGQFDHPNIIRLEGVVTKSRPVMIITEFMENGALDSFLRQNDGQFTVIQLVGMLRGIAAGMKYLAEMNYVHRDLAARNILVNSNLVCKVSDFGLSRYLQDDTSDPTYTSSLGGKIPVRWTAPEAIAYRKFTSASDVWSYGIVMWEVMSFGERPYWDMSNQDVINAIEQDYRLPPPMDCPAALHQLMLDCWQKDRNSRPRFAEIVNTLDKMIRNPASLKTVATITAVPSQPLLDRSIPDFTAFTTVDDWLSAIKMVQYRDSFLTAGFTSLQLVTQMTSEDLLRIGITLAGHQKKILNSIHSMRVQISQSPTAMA

Assay [9] deals with Tyrosine-protein kinase SYK (Homo sapiens, UniProt P43405).
In assay [10] the target is Focal adhesion kinase 1 (Homo sapiens, UniProt Q05397).
In assay [11] the target is Vascular endothelial growth factor receptor 1 (Homo sapiens, UniProt P17948).
Sequence of Vascular endothelial growth factor receptor 1 (P17948 whole entry): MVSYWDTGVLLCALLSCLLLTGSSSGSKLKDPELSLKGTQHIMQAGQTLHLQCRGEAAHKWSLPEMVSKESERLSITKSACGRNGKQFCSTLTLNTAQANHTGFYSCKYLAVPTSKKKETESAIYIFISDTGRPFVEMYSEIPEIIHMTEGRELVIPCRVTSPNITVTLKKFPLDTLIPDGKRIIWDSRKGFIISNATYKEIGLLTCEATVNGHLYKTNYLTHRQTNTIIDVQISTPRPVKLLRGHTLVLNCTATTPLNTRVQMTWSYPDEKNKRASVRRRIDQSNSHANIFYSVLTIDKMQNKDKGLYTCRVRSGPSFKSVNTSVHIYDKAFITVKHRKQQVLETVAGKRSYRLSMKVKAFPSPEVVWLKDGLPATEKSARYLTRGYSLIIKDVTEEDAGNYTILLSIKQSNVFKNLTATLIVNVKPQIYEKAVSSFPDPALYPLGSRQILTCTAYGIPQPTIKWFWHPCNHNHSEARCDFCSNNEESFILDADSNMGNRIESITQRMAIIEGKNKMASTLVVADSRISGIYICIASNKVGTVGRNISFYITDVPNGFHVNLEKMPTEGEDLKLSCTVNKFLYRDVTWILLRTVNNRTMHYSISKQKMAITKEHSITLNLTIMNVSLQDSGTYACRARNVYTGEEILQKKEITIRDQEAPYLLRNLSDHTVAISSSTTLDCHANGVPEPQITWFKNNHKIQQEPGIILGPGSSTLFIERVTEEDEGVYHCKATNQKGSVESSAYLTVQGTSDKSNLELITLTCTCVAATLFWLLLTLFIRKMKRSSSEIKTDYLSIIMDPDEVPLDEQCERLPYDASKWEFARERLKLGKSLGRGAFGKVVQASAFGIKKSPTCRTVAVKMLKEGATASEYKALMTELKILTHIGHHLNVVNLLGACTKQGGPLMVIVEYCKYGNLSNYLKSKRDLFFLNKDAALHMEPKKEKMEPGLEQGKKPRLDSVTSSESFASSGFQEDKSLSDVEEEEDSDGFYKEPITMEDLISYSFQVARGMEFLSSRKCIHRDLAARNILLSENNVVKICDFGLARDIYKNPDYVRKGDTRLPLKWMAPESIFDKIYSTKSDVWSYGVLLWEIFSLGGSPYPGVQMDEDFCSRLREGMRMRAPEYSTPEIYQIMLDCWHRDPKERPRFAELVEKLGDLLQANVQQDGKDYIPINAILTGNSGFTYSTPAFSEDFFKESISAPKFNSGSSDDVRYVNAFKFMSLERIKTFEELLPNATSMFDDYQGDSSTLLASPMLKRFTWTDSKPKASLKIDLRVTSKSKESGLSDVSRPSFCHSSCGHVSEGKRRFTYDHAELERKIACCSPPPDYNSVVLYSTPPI
Assay [12] has as its target T3, Receptor-interacting serine/threonine-protein kinase 1 (Homo sapiens, UniProt Q13546).
T3 sequence (Q13546 whole entry): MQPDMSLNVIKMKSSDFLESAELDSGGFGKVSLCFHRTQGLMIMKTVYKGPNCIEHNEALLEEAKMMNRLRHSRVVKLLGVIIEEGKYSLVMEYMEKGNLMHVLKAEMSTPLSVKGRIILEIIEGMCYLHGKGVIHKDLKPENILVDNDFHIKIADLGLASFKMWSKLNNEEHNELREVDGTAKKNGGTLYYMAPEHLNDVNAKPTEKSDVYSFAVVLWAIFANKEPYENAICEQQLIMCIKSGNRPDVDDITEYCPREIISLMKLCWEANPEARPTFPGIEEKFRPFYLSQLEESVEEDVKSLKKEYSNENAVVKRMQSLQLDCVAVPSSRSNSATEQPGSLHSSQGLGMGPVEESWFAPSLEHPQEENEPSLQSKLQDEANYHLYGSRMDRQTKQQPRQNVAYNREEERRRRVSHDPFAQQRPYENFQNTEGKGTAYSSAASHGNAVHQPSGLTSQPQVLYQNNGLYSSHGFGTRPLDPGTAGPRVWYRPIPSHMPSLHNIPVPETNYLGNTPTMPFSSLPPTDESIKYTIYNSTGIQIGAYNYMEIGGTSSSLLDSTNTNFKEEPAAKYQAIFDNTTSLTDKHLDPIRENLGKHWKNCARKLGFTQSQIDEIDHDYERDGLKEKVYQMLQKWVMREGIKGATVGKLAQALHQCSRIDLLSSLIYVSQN

Assay [13] addresses Death-associated protein kinase 2 (Homo sapiens, UniProt Q9UIK4).
Assay [14] has as its target Serine/threonine-protein kinase PLK3 (Homo sapiens, UniProt Q9H4B4).

Data on six compounds can be found in ChEMBL document CHEMBL1150977, “A quantitative analysis of kinase inhibitor selectivity” (Nat Biotechnol, 2008).

SMILES strings stand for the structures.

Sequence of Phosphatidylinositol 4,5-bisphosphate 3-kinase catalytic subunit alpha isoform (P42336 whole entry E545K, canonical isoform): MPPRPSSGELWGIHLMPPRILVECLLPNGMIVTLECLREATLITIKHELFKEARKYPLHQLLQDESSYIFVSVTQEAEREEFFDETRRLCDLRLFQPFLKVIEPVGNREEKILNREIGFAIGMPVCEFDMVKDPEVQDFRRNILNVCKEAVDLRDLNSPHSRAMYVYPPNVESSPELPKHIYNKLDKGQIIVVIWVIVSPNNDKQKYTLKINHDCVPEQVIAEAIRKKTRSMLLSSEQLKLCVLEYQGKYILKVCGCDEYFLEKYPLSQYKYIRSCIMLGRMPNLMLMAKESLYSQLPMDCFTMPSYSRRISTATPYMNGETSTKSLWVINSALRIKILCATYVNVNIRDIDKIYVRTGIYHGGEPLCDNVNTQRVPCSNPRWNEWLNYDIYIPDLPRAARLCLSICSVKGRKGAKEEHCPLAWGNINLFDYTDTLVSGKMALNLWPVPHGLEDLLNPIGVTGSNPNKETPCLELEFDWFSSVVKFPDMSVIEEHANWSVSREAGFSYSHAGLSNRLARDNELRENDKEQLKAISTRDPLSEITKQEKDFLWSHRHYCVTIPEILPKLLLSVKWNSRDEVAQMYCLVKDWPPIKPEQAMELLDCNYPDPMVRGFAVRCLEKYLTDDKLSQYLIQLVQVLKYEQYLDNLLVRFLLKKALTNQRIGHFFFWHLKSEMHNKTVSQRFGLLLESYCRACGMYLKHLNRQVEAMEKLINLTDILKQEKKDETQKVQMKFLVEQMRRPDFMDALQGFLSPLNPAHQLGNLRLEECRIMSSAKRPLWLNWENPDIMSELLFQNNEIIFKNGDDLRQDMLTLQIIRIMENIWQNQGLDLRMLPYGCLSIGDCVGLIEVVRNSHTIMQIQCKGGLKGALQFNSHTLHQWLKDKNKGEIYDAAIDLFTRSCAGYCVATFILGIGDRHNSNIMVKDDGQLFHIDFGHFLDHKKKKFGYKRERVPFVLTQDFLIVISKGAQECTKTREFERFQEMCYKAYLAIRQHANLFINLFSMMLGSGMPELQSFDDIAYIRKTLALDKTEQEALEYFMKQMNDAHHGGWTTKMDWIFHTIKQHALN
Sequence of Death-associated protein kinase 2 (Q9UIK4 whole entry): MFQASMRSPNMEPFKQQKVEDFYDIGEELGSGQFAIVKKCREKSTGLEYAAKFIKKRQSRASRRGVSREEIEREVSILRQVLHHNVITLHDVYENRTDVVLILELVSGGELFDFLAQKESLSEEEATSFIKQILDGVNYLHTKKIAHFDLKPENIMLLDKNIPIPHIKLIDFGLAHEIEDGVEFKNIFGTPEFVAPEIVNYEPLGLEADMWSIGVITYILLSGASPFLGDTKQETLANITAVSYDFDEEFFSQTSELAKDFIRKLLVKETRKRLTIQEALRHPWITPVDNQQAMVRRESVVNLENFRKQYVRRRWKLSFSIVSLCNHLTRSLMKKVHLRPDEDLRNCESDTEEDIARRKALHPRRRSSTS
Sequence of Serine/threonine-protein kinase 16 (O75716 whole entry): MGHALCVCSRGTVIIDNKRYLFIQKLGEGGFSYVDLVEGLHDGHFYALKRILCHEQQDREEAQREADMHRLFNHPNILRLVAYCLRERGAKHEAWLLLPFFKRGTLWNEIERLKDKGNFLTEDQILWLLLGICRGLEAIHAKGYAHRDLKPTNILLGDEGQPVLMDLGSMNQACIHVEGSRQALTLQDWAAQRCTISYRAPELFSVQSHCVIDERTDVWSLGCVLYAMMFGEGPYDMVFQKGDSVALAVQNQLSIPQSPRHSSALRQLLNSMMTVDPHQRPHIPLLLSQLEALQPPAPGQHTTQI
Sequence of Activin receptor type-1-like (P37023 whole entry): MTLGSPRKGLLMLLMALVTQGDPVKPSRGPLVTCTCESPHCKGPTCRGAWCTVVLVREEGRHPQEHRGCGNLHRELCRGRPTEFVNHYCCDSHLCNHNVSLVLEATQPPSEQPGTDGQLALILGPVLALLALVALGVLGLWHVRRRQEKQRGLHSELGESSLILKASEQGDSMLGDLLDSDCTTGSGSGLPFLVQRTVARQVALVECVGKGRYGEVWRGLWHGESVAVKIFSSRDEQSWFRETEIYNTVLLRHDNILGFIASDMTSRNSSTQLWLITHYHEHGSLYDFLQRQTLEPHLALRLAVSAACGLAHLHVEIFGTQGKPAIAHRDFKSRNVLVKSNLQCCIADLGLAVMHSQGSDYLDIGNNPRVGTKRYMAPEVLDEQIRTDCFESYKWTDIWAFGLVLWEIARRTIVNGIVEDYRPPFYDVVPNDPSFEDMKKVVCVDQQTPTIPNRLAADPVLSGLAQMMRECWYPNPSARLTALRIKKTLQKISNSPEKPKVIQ
Sequence of Serine/threonine-protein kinase PLK3 (Q9H4B4 whole entry): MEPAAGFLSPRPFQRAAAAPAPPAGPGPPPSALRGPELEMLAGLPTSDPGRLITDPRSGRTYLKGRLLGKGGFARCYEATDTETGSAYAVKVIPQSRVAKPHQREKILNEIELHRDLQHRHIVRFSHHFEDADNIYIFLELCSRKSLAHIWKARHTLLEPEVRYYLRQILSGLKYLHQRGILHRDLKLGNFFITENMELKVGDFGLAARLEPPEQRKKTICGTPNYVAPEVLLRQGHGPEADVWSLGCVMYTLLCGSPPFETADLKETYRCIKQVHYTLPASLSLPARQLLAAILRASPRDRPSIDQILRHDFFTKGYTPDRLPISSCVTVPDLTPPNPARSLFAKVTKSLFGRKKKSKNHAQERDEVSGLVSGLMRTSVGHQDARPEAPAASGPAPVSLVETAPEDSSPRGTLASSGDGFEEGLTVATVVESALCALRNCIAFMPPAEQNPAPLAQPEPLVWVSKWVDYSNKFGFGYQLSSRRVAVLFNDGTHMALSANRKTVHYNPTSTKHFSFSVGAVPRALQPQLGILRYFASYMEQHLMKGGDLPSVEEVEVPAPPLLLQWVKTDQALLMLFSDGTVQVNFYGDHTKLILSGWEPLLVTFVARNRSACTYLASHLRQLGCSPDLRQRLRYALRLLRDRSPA
Sequence of Serine/threonine-protein kinase PAK 2 (Q13177 whole entry): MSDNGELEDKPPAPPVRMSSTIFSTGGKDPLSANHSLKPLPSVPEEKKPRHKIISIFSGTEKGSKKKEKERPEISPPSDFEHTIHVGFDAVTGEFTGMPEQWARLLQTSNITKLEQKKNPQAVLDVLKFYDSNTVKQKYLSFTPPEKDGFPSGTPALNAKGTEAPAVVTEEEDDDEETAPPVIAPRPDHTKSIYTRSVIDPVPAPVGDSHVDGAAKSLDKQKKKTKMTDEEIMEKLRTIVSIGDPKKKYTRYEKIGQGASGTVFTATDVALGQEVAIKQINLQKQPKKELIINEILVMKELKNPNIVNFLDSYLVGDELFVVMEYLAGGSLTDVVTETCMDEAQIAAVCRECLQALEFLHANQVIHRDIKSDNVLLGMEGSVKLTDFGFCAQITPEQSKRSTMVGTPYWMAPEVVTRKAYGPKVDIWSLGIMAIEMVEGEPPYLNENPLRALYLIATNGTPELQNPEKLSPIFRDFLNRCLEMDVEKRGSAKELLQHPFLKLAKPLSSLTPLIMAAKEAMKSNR

One may read the Kd as the equilibrium constant for the complex coming apart. Read a low Kd as a tighter complex. With `Oc1ccc(-c2nc(-c3ccncc3)c(-c3ccc(F)cc3)[nH]2)cc1` [SB-202190], the dissociation constant (Kd) in assay [1], in assay [2], in [3], in [4], in assay [5] and in assay [6] was more than 10 µM in each case. The Kd in assay [7], in assay [8], in [9], in assay [10], in [11] and in assay [12] was more than 10 µM in each case. Further, the dissociation constant Kd in assay [13] and in [14] was more than 10 µM in each case.

In [14], `CCN1CCN(Cc2ccc(NC(=O)Nc3ccc(Oc4cc(NC)ncn4)cc3)cc2C(F)(F)F)CC1` [AST-487] came in with a Kd of more than 10 µM.

Consider `COCC(=O)NC/C=C/c1ccc2ncnc(Nc3ccc(Oc4ccc(C)nc4)c(C)c3)c2c1` [CP-724714], for which the Kd in assay [1], in assay [2], in assay [3], in [5], in assay [6] and in [7] was more than 10 µM in each case. Also, the dissociation constant (Kd) in assay [8], in [9], in assay [10], in [11], in assay [12] and in [13] was more than 10 µM each time. The Kd in assay [14] was more than 10 µM.

Regarding `Nc1nc(Nc2ccc(S(N)(=O)=O)cc2)nn1C(=O)c1c(F)cccc1F` [JNJ-7706621], the equilibrium dissociation constant (Kd) was more than 10 µM in assay [1]; more than 10 µM in [4]; more than 10 µM in assay [6]; more than 10 µM in assay [8]; 1.8 µM in [12]; more than 10 µM in assay [13].

As to `NC(=O)c1ccc(-c2nc(-c3ccc4c(c3)OCO4)c(-c3ccccn3)[nH]2)cc1` [SB-431542], the dissociation constant (Kd) in assay [1], in [2], in assay [3], in [4], in [5] and in [6] was more than 10 µM throughout. The dissociation constant Kd in assay [7], in assay [8], in assay [9], in [10], in assay [11] and in [12] was more than 10 µM each time. The Kd in assay [13] and in assay [14] was more than 10 µM each time.

For the compound `CCOc1cc2ncc(C#N)c(Nc3ccc(F)c(Cl)c3)c2cc1NC(=O)/C=C/CN(C)C` [PELITINIB], the Kd in assay [1] is more than 10 µM; in assay [2], more than 10 µM; in [4], more than 10 µM; in assay [5], more than 10 µM; in assay [6] it was more than 10 µM; in assay [9], 7.2 µM. In addition, the dissociation constant (Kd) in [11], in assay [12], in assay [13] and in assay [14] was more than 10 µM in each case.
